Source: patent publication US20260240801A1, “COMPOSITIONS FOR TREATING PARKINSON’S DISEASE AND QUALITATIVE ASSESSMENT THEREOF” (InTrance Medical Systems Inc., priority 2023, published 2026)

How the values were obtained:
[1] = Stability study of Compound 1 (E920) on storage: purity by HPLC; assay type: physicochemical
Experimental: (§1) Compound 1 purity was determined by HPLC at two wavelengths 220 nm and 280 nm. Identification of Compound 1 was carried out by IR and NMR methods (^1H NMR, ^13C NMR). The residual solvents methanol and dichloromethane (DCM) were determined by gas chromatography (GC). Residual water content was determined by Karl Fisher analysis. Thermogravimetric analysis (TGA) of Compound 1 was also carried out with hold time of 10 minutes at final temperature of 105° C.
• Detector: UV/Vis or Diode Array Detector • Wavelength: Signal A: 280 nm, Bandwidth: 4 nm, Reference: OFF • Signal B: 220 nm, Bandwidth: 4 nm, Reference: OFF • Column: SunFire C18 Column (150×4.6 mm, 3.5 um) • Mobile Phase A: 0.06% TFA in H2O • Mobile Phase B: 0.04% TFA in (MeOH:H2O, 80:20)
• Autosampler Temperature: 6° C. • Column Temperature: 40° C. • Flow Rate: 1.0 mL/min • Injection Volume: 5 μL • Run Time: 30 min
• Accurately weigh approximately 10.0 mg of test sample into a 20 mL volumetric flask. • Dilute to volume with diluent and mix well. (0.5 mg/mL).
• Integrate all peaks≥0.05% a/a, not present in the blank solution. • ECA—Analytical Method—E920H2—for standard qualification
(§2) The stability profile of Compound 1 (Eurofins CDMO Alphora Inc. code: E920) was being evaluated over a period of 6 months under Long Term storage condition of <−20° C. and 6 months under accelerated condition of 25±2° C./60%±5% RH; and at intermediate storage conditions of 5±3° C. Additional samples are stored at each storage conditions to cover the stability studies up to 12 months, after 6 months satisfactory stability results. Attributes being tested include: description of composition, purity by HPLC, identification by HPLC and water content by Karl Fischer (KF) Method. This study is conducted in compliance with ICH Q1A (R2) and Alphora Standard Operating Procedure SOP LC027.
(§3) The stability profile of Compound 1 (Eurofins CDMO Alphora Inc. code: E920) was being evaluated over a period of up to 12 months under Long Term storage condition of <−20° C. and up to 12 months under accelerated condition of 25±2° C./60%±5% RH; and store only at intermediate storage conditions of 5±3° C. Attributes being tested include: description of composition, purity by HPLC, identification by HPLC and water content by Karl Fischer (KF) Method. This study is conducted in compliance with ICH Q1A (R2) and Alphora Standard Operating Procedure SOP LC027.

[2] = Stability study of Compound 1 (E920) on storage: water content by Karl Fischer; assay type: physicochemical
Experimental: as §1, §2, §3

## C[C@@](Cc1ccc(O)c(O)c1)(N/N=C/c1cc(O)c(O)c([N+](=O)[O-])c1)C(=O)O [Compound 1, (2s)-2-[(E)-2-[(3,4-dihydroxy-5-nitrophenyl)methylidene]hydrazin-1-yl]-3-(3,4-dihydroxyphenyl)-2-methylpropanoic acid]
[1]; 25° C./60% RH, 1 M
  % Purity at 220 nm by HPLC: 95.7%
  % Purity at 280 nm by HPLC: 96.2%
  % a/a Purity at 220 nm by HPLC: 95.7 % a/a
  % a/a Purity at 280 nm by HPLC: 96.2 % a/a
[1]; 25° C./60% RH, 3 M
  % Purity at 220 nm by HPLC: 93.9%
  % Purity at 280 nm by HPLC: 94.9%
  % a/a Purity at 220 nm by HPLC: 93.9 % a/a
  % a/a Purity at 280 nm by HPLC: 94.9 % a/a
[1]; 25° C./60% RH, 6 M
  % a/a Purity at 220 nm by HPLC: 94.8 % a/a
  % a/a Purity at 280 nm by HPLC: 95.3 % a/a
[1]; 25° C./60% RH, 12 M
  % a/a Purity at 220 nm by HPLC: 93.2 % a/a
  % a/a Purity at 280 nm by HPLC: 95.1 % a/a
[1]; Initial
  % Purity at 220 nm by HPLC: 95.4%
  % Purity at 280 nm by HPLC: 96.1%
[1]; Initial (12-month study)
  % a/a Purity at 220 nm by HPLC: 95.4 % a/a
  % a/a Purity at 280 nm by HPLC: 96.1 % a/a
[1]; −20° C. and 25° C./60% RH
  Three-month stability: satisfactory
  Twelve-month stability: satisfactory
[1]; −20° C., 1 M
  % Purity at 220 nm by HPLC: 95.8%
  % Purity at 280 nm by HPLC: 96.0%
  % a/a Purity at 220 nm by HPLC: 95.8 % a/a
  % a/a Purity at 280 nm by HPLC: 96.0 % a/a
[1]; −20° C., 3 M
  % Purity at 220 nm by HPLC: 94.3%
  % Purity at 280 nm by HPLC: 95.2%
  % a/a Purity at 220 nm by HPLC: 94.3 % a/a
  % a/a Purity at 280 nm by HPLC: 95.2 % a/a
[1]; −20° C., 6 M
  % a/a Purity at 220 nm by HPLC: 96.5% a/a
  % a/a Purity at 280 nm by HPLC: 96.1 % a/a
[1]; −20° C., 12 M
  % a/a Purity at 220 nm by HPLC: 95.9 % a/a
  % a/a Purity at 280 nm by HPLC: 96.6 % a/a
[2]; 25° C./60% RH, 1 M
  % residual water content by KF: 1.63%
[2]; 25° C./60% RH, 1 M (12-month study)
  % residual water content by KF: 1.63%
[2]; 25° C./60% RH, 3 M
  % residual water content by KF: 2.05%
[2]; 25° C./60% RH, 3 M (12-month study)
  % residual water content by KF: 2.05%
[2]; 25° C./60% RH, 6 M
  % residual water content by KF: 3.55%
[2]; 25° C./60% RH, 12 M
  % residual water content by KF: 4.02%
[2]; Initial
  % residual water content by KF: 1.51%
[2]; Initial (12-month study)
  % residual water content by KF: 1.51%
[2]; −20° C., 1 M
  % residual water content by KF: 1.67%
[2]; −20° C., 1 M (12-month study)
  % residual water content by KF: 1.67%
[2]; −20° C., 3 M
  % residual water content by KF: 1.96%
[2]; −20° C., 3 M (12-month study)
  % residual water content by KF: 1.96%
[2]; −20° C., 6 M
  % residual water content by KF: 3.35%
[2]; −20° C., 12 M
  % residual water content by KF: 4.08%
